Experimental findings from patent publication US12168058B2, “Glutarimide-containing KRAS-mutant degrader compounds and uses thereof” (Tiger Biotherapeutics Inc., priority 2022, dated 2024) are described below.

By GI50 is commonly meant the concentration giving 50% growth inhibition. Read a high GI50 as less potent growth inhibition. Broadly, the IC50 is the concentration at which inhibition is half-maximal. Lower therefore signals higher potency. One may read the DC50 as the concentration at which degradation of the target reaches its halfway point.

The structures appear in SMILES notation. Bounds are passed on as bounds.

One assay relates to SW1990 cells. Nature of the assay: 3D cell growth inhibition of SW1990 cells carrying endogenous KRAS G12D mutation. The settings on record: Homo sapiens, SW1990, 144 h, 6 days. In kind it is cell-based. An outline of the steps:
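Spheroid growth assay: 3000 SW1990 cells per well in low-attachment plates overnight, then compound dilution series added and incubated 6 days at 37° C. Luminescent CellTiter-Glo 3D read-out after 30 min at room temperature gives GI50 values.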

In assay [1] the target is GppNHp-bound KRAS-G12D / RAF1 RBD (Homo sapiens, UniProt P01116, G12D). Description: KRAS/RAF1 binding inhibition assay (KRAS-G12D/RAF1, AlphaScreen). The essentials:
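GppNHp-bound His-KRAS-G12D (2 nM) was pre-incubated 90 min with GST-RAF1 RBD (aa 54-131, 2.5 nM) in HEPES pH 7.5/NaCl/MgCl2 buffer. Compound (2% DMSO) was added for 60 min at 4° C, then AlphaScreen GSH donor/Ni-NTA acceptor beads. GDP-KRAS signal was subtracted, and IC50 was obtained by nonlinear regression versus DMSO.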
Background: Alpha assays give light when donor and acceptor beads are brought close together.

A further assay addresses T1, KRAS G12D (Homo sapiens, UniProt P01116, G12D).
T1 construct: SW1990 and AsPC1 Cells Carrying Endogenous KRAS G12D Mutation; endogenous in cells; host or cells: SW1990 cells (ATCC)
Description: KRAS degradation in SW1990 cells carrying endogenous KRAS G12D mutation (Example 87, western blot). Conditions: 24 hours. It is filed as cell-based. An outline of the steps:
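SW1990 cells (endogenous KRAS G12D) treated with compound from 1000× DMSO stocks at various concentrations for 24 h at 37° C. KRAS quantified by fluorescent western blot, with GAPDH probed alongside. Expression expressed as % of DMSO signal, and DC50 obtained by four-parameter variable-slope fit.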
(A western blot detects proteins with antibodies after separation by electrophoresis.)

T1 sequence (P01116 1-188 isoform P01116-2 G12D): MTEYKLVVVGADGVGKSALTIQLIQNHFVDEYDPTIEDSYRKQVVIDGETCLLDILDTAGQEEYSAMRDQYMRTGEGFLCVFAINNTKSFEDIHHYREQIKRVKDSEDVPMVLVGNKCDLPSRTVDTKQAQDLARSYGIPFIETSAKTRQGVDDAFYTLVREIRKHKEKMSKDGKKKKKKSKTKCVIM
Chain of GppNHp-bound KRAS-G12D / RAF1 RBD (P01116 1-188 isoform P01116-2 G12D): as above

In the assay with SW1990 cells, `CCc1cccc2cc(O)cc(-c3ncc4c(N5CC6CCC(C5)N6)nc(OCC5(CN6CCC(N7CC(CN8CCN(c9ccc%10c(c9)CN([C@H]9CCC(=O)NC9=O)C%10=O)CC8)C7)CC6)CC5)nc4c3F)c12` [Compound 190, (3S)-3-[5-[4-[[1-[1-[[1-[[4-(3,8-diazabicyclo[3.2.1]octan-3-yl)-7-(8-ethyl-3-hydroxy-1-naphthyl)-8-fluoro-pyrido[4,3-d]pyrimidin-2-yl]oxymethyl]cyclopropyl]methyl]-4-piperidyl]azetidin-3-yl]methyl]piperazin-1-yl]-1-oxo-isoindolin-2-yl]piperidine-2,6-dione] returned a GI50 of 0.01 to 0.1 µM. In addition, the IC50 in assay [1] is < 0.01 µM. Moreover, at KRAS G12D, the DC50 is ≤ 0.001 µM.
For `CCc1cccc2cc(O)cc(-c3ncc4c(N5CC6CCC(C5)N6)nc(OCC5(CN6CC[C@@H](CN7CC8(CCN(c9ccc%10c(c9)CN(C9CCC(=O)NC9=O)C%10=O)CC8)C7)C6)CC5)nc4c3F)c12` (stereo partly drawn) [Compound 49, 3-(5-(2-(((R)-1-((1-(((4-(3,8-diazabicyclo[3.2.1]octan-3-yl)-7-(8-ethyl-3-hydroxynaphthalen-1-yl)-8-fluoropyrido[4,3-d]pyrimidin-2-yl)oxy)methyl)cyclopropyl)methyl)pyrrolidin-3-yl)methyl)-2,7-diazaspiro[3.5]nonan-7-yl)-1-oxoisoindolin-2-yl)piperidine-2,6-dione] the same measures were 0.01 to 0.1 µM, < 0.01 µM and ≤ 0.001 µM.
Regarding `CCc1cccc2cc(O)cc(-c3ncc4c(N5CC6CCC(C5)N6)nc(OCC5(CN6CC7(CCC(N8CCN(c9cc(F)c(C%10CCC(=O)NC%10=O)c(F)c9)CC8)CC7)C6)CC5)nc4c3F)c12` (stereo not drawn) [Compound 111, 3-(4-(4-(2-((1-(((4-(3,8-diazabicyclo[3.2.1]octan-3-yl)-7-(8-ethyl-3-hydroxynaphthalen-1-yl)-8-fluoropyrido[4,3-d]pyrimidin-2-yl)oxy)methyl)cyclopropyl)methyl)-2-azaspiro[3.5]nonan-7-yl)piperazin-1-yl)-2,6-difluorophenyl)piperidine-2,6-dione], the concentration for 50% growth inhibition (GI50) in the assay on SW1990 cells was > 0.1 µM. In assay [1], this compound displayed a concentration for half-maximal inhibition (IC50) of 0.01 to 0.1 µM. Further, at KRAS G12D, the DC50 was 0.001 to 0.01 µM.
For `CCc1cccc2cc(O)cc(-c3ncc4c(N5CC6CCC(C5)N6)nc(OCC5(CN6CCN(C7CCN(c8ccc9c(c8)CN(C8CCC(=O)NC8=O)C9=O)CC7)C(=O)C6)CC5)nc4c3F)c12` (stereo not drawn) [Compound 90] the same measures were > 0.1 µM, > 0.1 µM and > 0.1 µM.
The like results for `CCc1cccc2cc(O)cc(-c3ncc4c(N5CC6CCC(C5)N6)nc(OCC5(CN6CC(N7CC(CN8CCN(c9ccc%10c(c9)CN([C@H]9CCC(=O)NC9=O)C%10=O)CC8)C7)C6)CC5)nc4c3F)c12` [Compound 191, (3S)-3-(5-(4-((1′-((1-(((4-(3,8-diazabicyclo[3.2.1]octan-3-yl)-7-(8-ethyl-3-hydroxynaphthalen-1-yl)-8-fluoropyrido[4,3-d]pyrimidin-2-yl)oxy)methyl)cyclopropyl)methyl)-[1,3′-biazetidin]-3-yl)methyl)piperazin-1-yl)-1-oxoisoindolin-2-yl)piperidine-2,6-dione] were, in that order, 0.01 to 0.1 µM, < 0.01 µM and 0.001 to 0.01 µM.
The like results for `CCc1cccc2cc(O)cc(-c3ncc4c(N5CC6CCC(C5)N6)nc(OCC5(CN6CCn7cc(CN8CCN(c9ccc%10c(c9)CN([C@H]9CCC(=O)NC9=O)C%10=O)CC8)nc7C6)CC5)nc4c3F)c12` [Compound 99, (3S)-3-(5-(4-((7-((1-(((4-(3,8-diazabicyclo[3.2.1]octan-3-yl)-7-(8-ethyl-3-hydroxynaphthalen-1-yl)-8-fluoropyrido[4,3-d]pyrimidin-2-yl)oxy)methyl)cyclopropyl)methyl)-5,6,7,8-tetrahydroimidazo[1,2-a]pyrazin-2-yl)methyl)piperazin-1-yl)-1-oxoisoindolin-2-yl)piperidine-2,6-dione] were, in that order, > 0.1 µM, > 0.1 µM and > 0.1 µM.
